The text below walks through data of a melting point compilation (Tetko et al.; mined from patent text by program, amines drawn as free bases though some values may be those of a salt).

For orientation: melting point means the temperature, or range, at which the solid turns liquid.

Structures are written as SMILES.

Compound `Nc1nc(N)c2c(I)nn(C3CC(O)C(CO)O3)c2n1` (stereo not given) showed a melting point of 154 °C.

Compound `Cc1sc(-c2ccccc2)nc1COc1ccc(Cn2cc(CCC(=O)O)c(-c3ccccc3)c2)cc1` came in with a melting point of 157 to 158 °C.

`CC12CCC3c4ccc(O)cc4CCC3C1CCC2OC(=O)c1cccnc1` (stereo not given) yielded a melting point of 221 to 222 °C.

Regarding `O=C(c1cc2cc3[nH]c(=O)oc3cc2[nH]1)N1CCC(OCc2ccccc2)CC1`, the melting point is 258 to 261 °C.

`O=c1[nH]cnc2nn(C3CCCCC3)cc12` displayed a melting point of 287 to 289 °C.

For the compound `O=C1OCc2ccccc2C1=NO`, the melting point lay within 181 to 185 °C.

Regarding `CC(C)N(C)c1nccc(Oc2ccc(NC(=O)c3cc(F)cc(N4CCOCC4)c3)c3ccccc23)n1`, the melting point is 94 to 96 °C.

The compound `C[C@H](CSC(=O)c1ccccc1)C(=O)N1C(=O)N(Cc2ccccc2)C[C@H]1C(=O)OC(C)(C)C` had a melting point of 104 to 106 °C.

Compound `O=C(NCCCn1cncn1)c1ccc(Cl)c(Cl)c1` came in with a melting point of 128 to 130 °C.

Compound `O=C(c1nc(-c2ccccc2)nc2ccccc12)N1CCOCC1` registered a melting point of 148 °C.

Compound `N#Cc1ccc(-c2cc(=O)c3cccnc3o2)cc1` registered a melting point of 250 to 252 °C.

Consider `CCC1(CC)C(=O)c2cc(O)c(C)c(C)c2C1=O`, for which the melting point was in the range of 141 to 142 °C.

In turn, `Cc1ccc(C)n1-c1nc(S(=O)(=O)Nc2c(Cl)cccc2Cl)n[nH]1` displayed a melting point of 107 to 108 °C.

In turn, `O=c1c2cnc(-c3ccccc3)nc2sn1Cc1ccccc1` gave a melting point of 166 to 167 °C.

`COc1ccc2c(c1)C(=O)C(=O)C=C2` returned a melting point of 78 to 80 °C.

`CCCCN(CCCC)c1ccc(C=CC=Cc2ccc(C=CC3=C(C#N)C(=C(C#N)C#N)OC3(c3ccccc3)C(F)(F)F)s2)c(OC)c1` (stereo not given): the melting point was 125 to 140 °C.

For `Cc1ccc(N2C(=O)C(O)=C(C(=O)c3ccc(CC(C)C)cc3)C2c2ccc(OC(F)(F)F)cc2)nn1` (stereo not given), the melting point was 260 °C.

`CNCc1nc(C(=O)NC)c2n1-c1ccc(Cl)cc1C(c1ccccc1Cl)=NC2` came in with a melting point of 270 to 273 °C.

For `CCNC(=C[N+](=O)[O-])SC`, the melting point lay in the range of 66 to 67.5 °C.

In the case of `CCS(=O)(=O)N(C)[C@@H]1c2cc([N+](=O)[O-])ccc2OCC[C@H]1O` (relative stereo), the melting point lay in the range of 133 to 135 °C.

Compound `CC(C)(C)OC(=O)CCc1cccc(-c2nc(=O)c3ccc(Cl)cc3s2)n1` returned a melting point of 168 °C.

For the compound `O=C(O)CCCNc1cc(Oc2ccc(C(F)(F)F)cc2Cl)ccc1[N+](=O)[O-]`, the melting point lay within 126 to 127 °C.

As to `O=C1CCCN1[C@@H]1c2ccccc2OCC[C@H]1O` (relative stereo), the melting point is 151 to 153 °C.

In turn, `CC1CCC2(C)C(=CCC3C4CC(Cl)C(=O)C4(C)CCC32)C1` (stereo not given) came in with a melting point of 159 to 165 °C.

As for `CC(=O)N1CCN(CC(C)NC(=O)c2ccc3c(c2)c(-c2ccccc2)nn3C)CC1` (stereo not given), the melting point lay within 98.8 to 100 °C.

The compound `CCN1CCCNC1=C[N+](=O)[O-]` gave a melting point of 126 to 127 °C.

Compound `Nc1cccc(C2(O)CCOCC2)c1` showed a melting point of 154 to 155 °C.

For the compound `O=c1ssc(N2CCc3ccccc3CC2)c1Cl`, the melting point came out at 141 °C.

On to `CC(C)C(C)(C#N)N1C(=O)c2cccc(O)c2C1=O` (stereo not given), for which the melting point fell in the range of 110 to 111 °C.

`CC(C)(O)c1cccn2c(-c3ccnc(NC4CCC(C(=O)N5CCC(O)CC5)CC4)n3)cnc12` (stereo not given) registered a melting point of 188 to 190 °C.

For the compound `CC1CN(c2ccccn2)N=C1N` (stereo not given), the melting point is 149 to 151 °C.

Turning to `O=C(Nc1nc(=O)n(S(=O)(=O)c2ccccc2)cc1F)Oc1ccccc1`, the melting point was in the range of 182 to 185 °C.

Regarding `CCCCOCCOc1ccc(-c2ccc3c(c2)C=C(C(=O)O)CCN3CCCOC)cc1`, the melting point was 99 to 101 °C.

Compound `NC(=O)c1ccc(Cl)c(Br)c1` returned a melting point of 146 to 147 °C.

`COc1c(O)c(C)c(CN2CCN(C(=S)SC)CC2)c(O)c1OC` came in with a melting point of 135 to 136 °C.

Take `COc1ccc(OC)c(CNc2ccc3nc[nH]c(=O)c3c2)c1`: the melting point was in the range of 203 to 205 °C.

As for `Cc1ccc2c(c1)N(CC(=O)c1ccccc1C)C(=O)C(NC(=O)Nc1ccc(C)c(C(=O)O)c1)CN2C(=O)c1cccs1` (stereo not given), the melting point fell in the range of 192 to 195 °C.

As to `CNC(=O)Oc1cccc(C2CCCN2CCN2C(=O)c3ccccc3C2=O)c1` (stereo not given), the melting point fell in the range of 96 to 98 °C.

`O=c1cc2c(nn1-c1ccc(Cl)cc1)-c1cc(CO)sc1CC2`: the melting point lay in the range of 195 to 197 °C.

For the compound `Cc1c(NC(=O)c2ccc(OC[C@@H]3CCCO3)cc2)ccc2[nH]c(CNCC(C)(C)O)cc12`, the melting point is 169 to 170 °C.

The compound `COc1c(C(=O)O)n(C)c(=O)c2ccc(Cl)cc12` gave a melting point of 216 to 217 °C.

On to `COC1=C(OC)C(=O)C2=C(CC(CCCCOc3ccc(CO)cc3)C2)C1=O`, for which the melting point lay in the range of 72 to 75 °C.

`CCCNCCC(=O)Nc1ccc2c(c1)C(=O)c1cc(NC(=O)CCNCCC)ccc1C2=O` registered a melting point of 170 °C.

`CCCOc1ccc(C(N)=O)cc1-c1ccc(C#N)c(=O)[nH]1` had a melting point of 246 to 247 °C.

Regarding `CC(C)(C)c1ccc2c(c1)ncn2-c1cccc(Br)n1`, the melting point lay in the range of 98 to 100 °C.

As for `Cc1cccc(C(=O)C(=C2SCS2)c2ccncc2)c1`, the melting point came out at 179 °C.

`Cc1cc2ccccc2cc1C1CC(=O)C=C(O)C1` (stereo not given): the melting point was 210 °C.

Regarding `O=CNC1Cc2ccc([N+](=O)[O-])cc2C1` (stereo not given), the melting point lay in the range of 91 to 92 °C.

Turning to `COc1cc(N2CCNCC2)c2ncccc2c1`, the melting point was 105 to 107 °C.

For `O=CNc1ccc(-c2c[nH]cn2)cc1`, the melting point was in the range of 108 to 109 °C.

`CC(C)(C)c1ccc(/C=C/C(=O)Nc2ccc3ncoc3c2)cc1` returned a melting point of 147 to 148 °C.

The compound `CCOC(=NC(=O)Nc1ccc(OC(F)(F)F)cc1)c1c(F)cccc1F` had a melting point of 98 to 100 °C.

For `Cc1cnc(OCC(O)CNC(C)(C)C)c2cc(Cl)ccc12` (stereo not given), the melting point lay in the range of 116 to 117 °C.

In turn, `CC(C)(C)OC(=O)N1CCn2c(Cl)c(-c3ccccc3)c(C(N)=O)c2C1` displayed a melting point of 178 to 180 °C.

`O=C(NC1CCOC1=O)c1cc2c(n(CC3CCCCC3)c1=O)CCCCCC2` (stereo not given) showed a melting point of 136 to 140 °C.

As to `CC(=O)Nc1ccc2c(c1)C(=O)CC1(CCN(Cc3ccc([N+](=O)[O-])cc3)CC1)O2`, the melting point is above 250 °C.

`CC1CCc2ccc(OCC(O)CNC3CCCCC3)cc2O1` (stereo not given) registered a melting point of 97 to 99 °C.

For the compound `CCCN(CCCc1c[nH]c2ccc(F)cc12)C1COc2c(F)ccc(C(N)=O)c2C1` (stereo not given), the melting point came to 125 °C.

Compound `CN(CCCNC(=O)c1cc(Cl)cc2nc3ccccc3nc12)CCCNC(=O)c1cc(Cl)cc2nc3ccccc3nc12` gave a melting point of 169 to 170 °C.

Compound `CSc1cc(C)nc(SC)c1NC(=O)CN1CCN(CCCSc2nc3ccccc3o2)CC1` gave a melting point of 160 to 161 °C.

Compound `O=C(O)CCCCc1cccn2cncc12` returned a melting point of 195 to 197 °C.

Regarding `CS(=O)(=O)OCCC(CCOS(C)(=O)=O)C(F)(F)F`, the melting point was in the range of 40 to 45 °C.

For the compound `Cc1cc(C(O)(C(F)(F)F)C(F)(F)F)cc(C)c1SCC(=O)O`, the melting point was in the range of 133 to 135 °C.

The compound `O=C(NC1C(=O)N(CC23CC4CC(CC(C4)C2)C3)c2ccccc2N(c2ccccc2)C1=O)Oc1ccccc1` (stereo not given) yielded a melting point of 205 to 207 °C.

`O=C(NCC1Cc2ccccc2C1)OCc1ccccc1` yielded a melting point of 87 to 89 °C.

The compound `COc1ccc2c(c1)C(=O)C(CN1CCC(O)(c3ccc(F)cc3)CC1)CC2` (stereo not given) had a melting point of 193 to 195 °C.

The compound `CC1Nc2ccccc2N2CCc3cc(Cl)cc1c32` (stereo not given) registered a melting point of 167 to 170 °C.

Compound `CC(C)=CCN(CC=C(C)C)Cc1noc(-c2ncn3c2[C@@H]2CCN2C(=O)c2ccccc2-3)n1` registered a melting point of 119 to 122 °C.

As for `O=C(Cc1cc(F)ccc1[N+](=O)[O-])N1CCN(c2nsc3ccccc23)CC1`, the melting point turned out to be 72 °C.

`COC(=O)C(=O)N1C(=O)[C@H](N2C(=O)c3ccccc3C2=O)[C@H]1Cl` came in with a melting point of 49 to 52 °C.

In the case of `CCCCNC(=O)CCc1ccccc1`, the melting point is 26.7 to 33.1 °C.

In the case of `COc1ccccc1N1CCN(CC2Cc3cc(C)c4[nH]c(=O)ccc4c3O2)CC1` (stereo not given), the melting point was in the range of 163 to 166 °C.

The compound `CC(C)CCC(=O)C(C(=O)O)C1c2ccccc2C(=O)N1c1ccc2ccc(Cl)nc2n1` (stereo not given) yielded a melting point of 176 °C.

`COc1cc(CCl)nc(N)n1`: the melting point lay within 89 to 90 °C.

`COC(=C(C#N)C(=O)Nc1ccccc1)c1cccn1C`: the melting point lay within 121 to 122 °C.

As for `C=C(C(=O)c1ccc(OC)c(Cl)c1Cl)C1CCCC1`, the melting point fell in the range of 59 to 63 °C.

On to `O=c1[nH]c2ccccc2n1C1CCN(C[C@@H]2CO[C@@H](c3ccc(F)cc3)C2)CC1` (relative stereo), for which the melting point was in the range of 154 to 155 °C.

Take `CON(C)Cc1nc2cnc3ccccc3c2n1CC1CCOCC1`: the melting point is 142 to 144 °C.

On to `CCSC1=C(c2ccc(O)cc2)C(=O)c2cc(O)cc(O)c21`, for which the melting point was in the range of 75 to 77 °C.

With `CC(C)n1nc(-c2sc(N)nc2-c2ccccc2)ccc1=O`, the melting point was above 250 °C.

Take `COc1ccc(CN(C)CCCSc2ccc(NC(=O)c3cccc4c(=O)c5cccc(OC)c5[nH]c34)cc2)cc1OC`: the melting point lay within 184 to 186 °C.

As for `N#Cc1cc(-c2ccc(Cl)cc2)c(Br)[nH]1`, the melting point is 202 to 204 °C.

Compound `Cc1cc(N2C=CC(O)CC2)nn2cnnc12` (stereo not given) displayed a melting point of 171 to 173 °C.

On to `N#Cc1cc2c(s1)-c1ccccc1OC2c1ccccc1` (stereo not given), for which the melting point was in the range of 138 to 140 °C.

In turn, `COc1cc(NC(N)=S)c(Cl)c(OC)c1` had a melting point of 159 to 162 °C.

Compound `O=C(CCCCCS(=O)c1ccc(Cl)cc1)NO` (stereo not given) returned a melting point of 125 °C.

Compound `CCCCNc1c(C(=O)OCC)c(C)nc2sc(C)nc12` registered a melting point of 53 to 54 °C.

`CO/N=C(\C)c1cccc(Nc2c3ccccc3nc3occc23)c1` came in with a melting point of 137 to 138 °C.

In the case of `COc1cc(CSCCC(=O)SCc2cc(OC)c(OC)c(OC)c2)cc(OC)c1OC`, the melting point was 88 to 89 °C.

On to `CCCNc1nc(N)c2ncn(C3CCCCC3)c2n1`, for which the melting point was 155 to 156 °C.
